Assay results taken from ChEMBL document CHEMBL1201862, “PubChem BioAssay data set” (2004).
Active and inactive are the calls of the source.

Columns and labels:
HeLa = assay: viability loss in HeLa cells – cell-based, ATP luminescence, cherry-pick samples, cytotoxicity control, dose response (AID 687004); format: functional; details: Homo sapiens
[1] = viability loss in HeLa cells – cytotoxicity control for MgcRacGAP inhibitor project, dose response (AID 624300); format: functional
[2] = biological target: T1, Rac GTPase-activating protein 1 (Homo sapiens, UniProt Q9H0H5); assay: blockers of MgcRacGAP-driven Rac1 GTP hydrolysis – biochemical, ADP Hunter fluorescence, primary and confirmatory, confirmation (AID 624330); format: functional
T1 sequence (Q9H0H5 whole entry): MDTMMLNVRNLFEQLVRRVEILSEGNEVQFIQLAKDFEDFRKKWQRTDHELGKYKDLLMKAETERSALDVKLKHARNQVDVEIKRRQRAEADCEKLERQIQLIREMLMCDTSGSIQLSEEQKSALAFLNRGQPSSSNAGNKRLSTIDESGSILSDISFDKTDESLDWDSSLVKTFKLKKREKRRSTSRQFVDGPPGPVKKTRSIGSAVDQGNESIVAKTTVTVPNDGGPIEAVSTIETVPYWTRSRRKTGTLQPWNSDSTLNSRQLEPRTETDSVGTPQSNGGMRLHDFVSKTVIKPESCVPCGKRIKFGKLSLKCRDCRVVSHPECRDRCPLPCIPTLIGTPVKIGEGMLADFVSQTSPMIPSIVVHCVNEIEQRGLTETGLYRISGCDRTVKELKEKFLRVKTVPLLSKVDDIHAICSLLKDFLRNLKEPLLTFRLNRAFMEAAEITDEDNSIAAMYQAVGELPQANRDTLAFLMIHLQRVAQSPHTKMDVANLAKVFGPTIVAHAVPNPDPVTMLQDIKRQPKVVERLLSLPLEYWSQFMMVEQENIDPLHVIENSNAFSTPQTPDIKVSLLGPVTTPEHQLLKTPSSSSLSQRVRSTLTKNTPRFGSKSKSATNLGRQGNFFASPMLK

Beta-galactosidase = Beta-galactosidase (Escherichia coli, UniProt Q8VNN2); assay: Dose response counterscreen for EBI2 assay utilizing the enzyme, b-galactosidase.; format: functional
Major prion protein = Major prion protein (Homo sapiens, UniProt P04156); format: functional, cell-based
cells [3] = assay: cells
[4] = test system: Streptococcus sp. 'group A'; assay: Streptococcus pyogenes SK(-)GAS viability under kanamycin – luminescence, BacTiterGlo, confirmation, counter-screen for streptokinase expression inhibitor project, dose response (AID 1900); format: functional, organism-based
Streptococcus = assay: GAS UMAA2166 growth inhibition – luminescence, BacTiterGlo, counter-screen for streptokinase expression inhibitor project, dose response (AID 1915); format: functional, organism-based;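 also: potency for reduction of bacterial viability or growth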
[5] = HGIII-sPLA2 enzyme inhibition potency – biochemical, QFRET, IC50, dose response (AID 743457);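 also: green fluorescence rise as the enzyme cleaves BODIPY PC-A2 in liposomes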
cells [6] = format: functional, cell-based
[7] = biological target: T2, Trace amine-associated receptor 1 (Homo sapiens, UniProt Q96RJ0); assay: Fluorescence-based cell-based high throughput dose response assay to identify agonists of the human trace amine associated receptor 1 (TAAR1).; format: functional
T2 sequence (Q96RJ0 whole entry): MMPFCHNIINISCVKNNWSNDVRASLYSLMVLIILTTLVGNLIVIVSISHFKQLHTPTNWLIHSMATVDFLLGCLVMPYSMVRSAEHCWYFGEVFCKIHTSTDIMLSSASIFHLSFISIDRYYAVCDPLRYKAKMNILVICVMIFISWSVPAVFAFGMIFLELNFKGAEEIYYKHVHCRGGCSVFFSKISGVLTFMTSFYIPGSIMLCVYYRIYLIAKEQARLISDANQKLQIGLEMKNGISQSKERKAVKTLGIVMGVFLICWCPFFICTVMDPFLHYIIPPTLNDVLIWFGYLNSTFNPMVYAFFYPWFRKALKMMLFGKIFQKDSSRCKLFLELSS

[8] = biological target: T2, Trace amine-associated receptor 1; assay: Counterscreen for agonists of the human trace amine associated receptor 1 (hTAAR1): Fluorescence-based cell-based high throughput dose response assay to identify hTAAR1 agonist that also desensitize TAAR1 receptor response.; format: functional
cells [9] = format: functional, cell-based; remark: listed apart in the source
[10] = biological target: Mitogen-activated protein kinase 10 (Homo sapiens, UniProt P53779); assay: Dose response biochemical screening assay for inhibitors of c-Jun N-Terminal Kinase 3 (JNK3). [Related pubchem assays: 746 ]

Cc1ccc2cc(NC(=O)c3ccccc3)ccc2n1
AC50 (HeLa): > 52 µM (inactive)

CC1CC(=O)N(c2ccc(NCCc3ccc(O)cc3)c([N+](=O)[O-])c2)C1=O (configuration not stated)
CC50 [1]: 100 µM (active)
IC50 [2]: 52.9 µM (active)

COc1ccc(-c2cn(-c3ccc(OC)cc3)c(S)n2)cc1
IC50 (Beta-galactosidase): > 80 µM (inactive)

Cn1c(N2CCC(C(N)=O)CC2)nc2c1c(=O)n(Cc1cccc(Br)c1)c(=O)n2C
IC50 (Major prion protein): 8.38 µM (active)
IC50 (cells [3]): > 138 µM (inactive)

COc1ccc(/C=C/C(=O)NC(=S)NNC(=O)c2ccco2)cc1
EC50 [4]: 1.72 µM (active)
EC50 (Streptococcus): 3.29 µM (active)
IC50 [5]: 34.9 µM (inactive)

CC1(C)CC(=O)C(C(=O)/C=C/NCCc2ccccc2)C(=O)C1
IC50 (cells [6]): > 29.9 µM (inactive)
EC50 [7]: 1.46 µM (active)
IC50 [8]: 7.8 µM (active)
EC50 (cells [9]): > 29.9 µM (inactive)

COC(=O)c1sccc1NC(=O)C1CC=CCC1C(=O)O (configuration not stated)
IC50 [10]: 19.8 µM (not active)
IC50 (Major prion protein): 2.48 µM (active)
IC50 (cells [3]): > 138 µM (inactive)

Cc1ccc(S(=O)(=O)N2CCN(C(=O)COc3ccc(Br)cc3)CC2)cc1
IC50 (Beta-galactosidase): > 80 µM (inactive)
